From patent US20110015393A1, “PHTHALAZINONE COMPOUND” (ASTRAZENECA AB, priority 2009, published 2011)
pIC50: −log10 of the molar value.

How the values were obtained:
[1] = biological target: T1, Mammalian PARP, isolated from Hela cell nuclear extract (Homo sapiens, UniProt P09874); test: PARP inhibition assay (FlashPlate, 3H-NAD incorporation); format: biochemical; conditions: PARP enzyme activity; NAD 5 μM, 30° C., 45 minutes
T1 construct: isolated from Hela cell nuclear extract; endogenous in cells; host or cells: HeLa cell nuclear extract
T1 sequence (P09874 whole entry): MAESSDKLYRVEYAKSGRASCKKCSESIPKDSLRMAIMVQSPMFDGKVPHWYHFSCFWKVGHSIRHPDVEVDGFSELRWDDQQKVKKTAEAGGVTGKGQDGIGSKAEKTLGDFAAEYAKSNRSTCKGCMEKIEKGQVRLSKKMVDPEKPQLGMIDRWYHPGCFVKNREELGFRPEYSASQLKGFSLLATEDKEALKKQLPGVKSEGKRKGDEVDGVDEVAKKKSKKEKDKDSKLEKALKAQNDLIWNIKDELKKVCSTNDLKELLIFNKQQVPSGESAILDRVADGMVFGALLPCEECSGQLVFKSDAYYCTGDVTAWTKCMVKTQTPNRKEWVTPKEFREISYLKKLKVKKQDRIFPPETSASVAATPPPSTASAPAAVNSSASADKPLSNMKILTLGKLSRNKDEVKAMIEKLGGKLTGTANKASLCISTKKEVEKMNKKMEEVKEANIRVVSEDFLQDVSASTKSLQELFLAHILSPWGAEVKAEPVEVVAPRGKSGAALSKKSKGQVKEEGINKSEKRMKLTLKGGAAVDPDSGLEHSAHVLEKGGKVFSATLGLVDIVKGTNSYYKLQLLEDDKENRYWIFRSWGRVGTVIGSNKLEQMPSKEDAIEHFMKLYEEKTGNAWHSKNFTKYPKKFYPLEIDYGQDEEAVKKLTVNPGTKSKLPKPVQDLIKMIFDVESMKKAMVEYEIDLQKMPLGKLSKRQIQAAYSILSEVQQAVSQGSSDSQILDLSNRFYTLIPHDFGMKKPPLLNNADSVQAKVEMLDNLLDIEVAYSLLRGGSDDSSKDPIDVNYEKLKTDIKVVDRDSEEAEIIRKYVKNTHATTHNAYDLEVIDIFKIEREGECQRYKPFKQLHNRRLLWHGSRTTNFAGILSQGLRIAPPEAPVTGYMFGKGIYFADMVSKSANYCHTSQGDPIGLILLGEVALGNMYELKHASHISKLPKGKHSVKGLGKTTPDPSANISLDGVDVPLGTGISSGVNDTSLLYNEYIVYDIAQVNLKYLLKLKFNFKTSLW
Description: In order to assess the inhibitory action of compound 1, the following assay was used to determine the IC50 value.
Mammalian PARP, isolated from Hela cell nuclear extract, was incubated with Z-buffer (25 mM Hepes (Sigma); 12.5 mM MgCl2 (Sigma); 50 mM KCl (Sigma); 1 mM DTT (Sigma); 10% Glycerol (Sigma) 0.001% NP-40 (Sigma); pH 7.4) in 96 well FlashPlates (TRADE MARK) (NEN, UK) and varying concentrations of said inhibitors added. The compound was diluted in DMSO and gave final assay concentrations of between 10 and 0.01 μM, with the DMSO being at a final concentration of 1% per well. The total assay volume per well was 40 μl.
After 10 minutes incubation at 30° C. the reactions were initiated by the addition of a 10 μl reaction mixture, containing NAD (5 μM), ^3H-NAD and 30 mer double stranded DNA-oligos. Designated positive and negative reaction wells were done in combination with compound wells (unknowns) in order to calculate % enzyme activities. The plates were then shaken for 2 minutes and incubated at 30° C. for 45 minutes. […]
The plates were transferred to a TopCount NXT (TRADE MARK) (Packard, UK) for scintillation counting. Values recorded are counts per minute (cpm) following a 30 second counting of each well.
The % enzyme activity for the compound is then calculated using the following equation: […]

HeLa cells = test: Potentiation Factor (PF50): MMS growth inhibition, SRB assay; format: cell-based; conditions: MMS 0 to 10 μg/ml, ratio of IC50 of control cell growth to IC50 of cell growth + PARP inhibitor
Description: The Potentiation Factor (PF50) for compounds is calculated as a ratio of the IC50 of control cell growth divided by the IC50 of cell growth+PARP inhibitor. Growth inhibition curves for both control and compound treated cells are in the presence of the alkylating agent methyl methanesulfonate (MMS). The test compound was used at a fixed concentration of 30 nM and 200 nM. The concentrations of MMS were over a range from 0 to 10 μg/ml. Cell growth was assessed using the sulforhodamine B (SRB) assay (Skehan, P., et al., (1990) New colorimetric cytotoxicity assay for anticancer-drug screening. J. Natl. Cancer Inst. 82, 1107-1112.). 2,000 HeLa cells were seeded into each well of a flat-bottomed 96-well microtiter plate in a volume of 100 μl and incubated for 6 hours at 37° C. Cells were either replaced with media alone or with media containing PARP inhibitor at a final concentration of 30 nM or 200 nM. Cells were allowed to grow for a further 1 hour before the addition of MMS at a range of concentrations (typically 0, 1, 2, 3, 5, 7 and 10 μg/ml) to either untreated cells or PARP inhibitor treated cells. Cells treated with PARP inhibitor alone were used to assess the growth inhibition by the PARP inhibitor. […] Plates were gently shaken and left at room temperature for 30 minutes before measuring the optical density at 564 nm on a Microquant microtiter plate reader.

P-glycoprotein = biological target: T2, P-glycoprotein (Homo sapiens, UniProt P08183); test: P-gp substrate activity: Dose Modification Ratio in KBA1 cells with/without Verapamil, SRB assay; format: in vitro ADME; conditions: IC50 in absence of Verapamil divided by IC50 in presence of 20 μM Verapamil, 5 days, DMR <1.5 = not a P-gp substrate
T2 construct: Hela cell line known as KBA1, which expressed high P-glycoprotein; endogenous in cells; host or cells: KBA1 cells (HeLa-derived, high P-gp); matched non-expressing line KB31
T2 sequence (P08183 whole entry): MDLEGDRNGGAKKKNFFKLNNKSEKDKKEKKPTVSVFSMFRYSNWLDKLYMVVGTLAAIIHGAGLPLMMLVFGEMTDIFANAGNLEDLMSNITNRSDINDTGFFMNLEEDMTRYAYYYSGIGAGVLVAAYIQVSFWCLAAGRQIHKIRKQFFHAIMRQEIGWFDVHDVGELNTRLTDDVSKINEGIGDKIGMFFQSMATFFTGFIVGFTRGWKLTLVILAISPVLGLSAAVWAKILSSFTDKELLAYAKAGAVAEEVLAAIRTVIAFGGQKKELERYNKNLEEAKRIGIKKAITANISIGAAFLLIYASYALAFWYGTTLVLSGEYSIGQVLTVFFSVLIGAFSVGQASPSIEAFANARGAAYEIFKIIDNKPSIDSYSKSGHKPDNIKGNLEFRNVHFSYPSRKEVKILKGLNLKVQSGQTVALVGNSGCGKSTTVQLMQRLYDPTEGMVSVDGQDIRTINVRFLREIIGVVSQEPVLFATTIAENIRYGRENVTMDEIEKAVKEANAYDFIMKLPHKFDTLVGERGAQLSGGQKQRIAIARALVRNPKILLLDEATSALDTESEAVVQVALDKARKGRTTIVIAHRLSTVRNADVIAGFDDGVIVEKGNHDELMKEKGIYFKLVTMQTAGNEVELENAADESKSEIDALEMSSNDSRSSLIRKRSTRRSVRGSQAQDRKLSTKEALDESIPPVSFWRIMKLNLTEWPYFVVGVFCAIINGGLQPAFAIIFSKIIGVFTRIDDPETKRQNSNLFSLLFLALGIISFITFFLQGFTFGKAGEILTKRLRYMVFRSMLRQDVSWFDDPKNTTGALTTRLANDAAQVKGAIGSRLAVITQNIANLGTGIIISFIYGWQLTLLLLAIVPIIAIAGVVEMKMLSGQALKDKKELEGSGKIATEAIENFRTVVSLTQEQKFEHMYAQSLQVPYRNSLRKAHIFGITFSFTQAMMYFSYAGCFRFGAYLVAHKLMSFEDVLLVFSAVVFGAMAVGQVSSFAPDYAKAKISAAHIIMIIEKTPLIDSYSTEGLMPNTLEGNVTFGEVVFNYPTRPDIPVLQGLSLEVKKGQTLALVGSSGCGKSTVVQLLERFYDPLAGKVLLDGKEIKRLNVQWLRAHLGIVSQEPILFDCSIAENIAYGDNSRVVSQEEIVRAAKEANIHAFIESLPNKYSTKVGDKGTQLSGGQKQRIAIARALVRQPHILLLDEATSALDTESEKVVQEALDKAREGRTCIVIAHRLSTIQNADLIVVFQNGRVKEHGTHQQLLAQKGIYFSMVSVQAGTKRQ
Description: Cells from the Hela cell line known as KBA1, which expressed high P-glycoprotein (ABC1a and ABC1b transporter glycoproteins also known as MDR1a and MDR1b) and the matched non-P-glycoprotein expressing line known as KB31, were seeded onto 96 well tissue culture plates with 80 μl per well of 1.00×10^4 cells/ml=800 cells/well [DMEM, 10% FBS, PSG] and left to adhere for 4 hours. After the incubation period 10 μl per well of 200 μM Verapamil (giving a final conc. of 20 μM) a known inhibitor of P-gp or vehicle media were added to various wells of the cell plates. The 96 well plates were left in the incubator for 1 hour prior to 10 μl of test compound (or the known substrate Etoposide as a reference control) or 10 μl PBS/1% DMSO vehicle (control wells) being added into either Verapamil containing or media control wells. […]
The cell plates were then incubated for 5 days prior to cell growth being assessed using the Sulforhodamine B (SRB) assay as described previously. The P-gp substrate activity for each compound was calculated using the cell growth activity of the tests compounds on the KBA1 cells in the presence or absence (control wells) of Verapamil. The Dose Modification Ratio (DMR) is calculated from the KBA1 where for each test compound a ratio of the IC50 of the compound in the absence of Verapamil is divided by the IC50 of cell growth in the presence of Verapamil. […]

pIC50 [1]: ~8.30
Dose Modification Ratio (DMR) (P-glycoprotein): 1.3
SMILES: COC1CCN(C(=O)c2cc(Cc3n[nH]c(=O)c4ccccc34)ccc2F)CC1 [Compound 1, 4-(4-Fluoro-3-(4-methoxypiperidine-1-carbonyl)benzyl)phthalazin-1(2H)-one]
PF50 at 30 nM (HeLa cells; test compound fixed at 30 nM): 3.0
PF50 at 200 nM (HeLa cells; test compound fixed at 200 nM): 15
